From patent US6716428B1, “Antigenic modification of polypeptides” (The Ohio State University Research Foundation, priority 1999, dated 2004)
Where two headings read alike, the source gives them in different places. Square brackets hold non-standard residues; d marks the D form. Ends that are not written are not given here. Nle = CCCC[C@H](N)C(=O)O

What was measured:
[1] = tested on: rabbit polyclonal antiserum to the 38-57 loop peptide; experiment: Competition radioimmunoassay with rabbit polyclonal antiserum to the 38-57 loop peptide; assay type: binding
Description: In the preceding examples, the studied available smallest peptide highly reactive to H-18 MAB was the 40-52 residue peptide and therefore, it was contemplated that the entire epitope resided within this sequence. By the procedures described in earlier examples for other peptides, peptides representing 50-52, 49-52, 48-52, 47-52, 46-52, 45-52, 44-52, 43-52, 42-52, and 41-52 were prepared and tested for reactivity with H-18 MAB and a rabbit polyclonal antiserum to the 38-57 loop peptide.
By earlier described procedures for other peptide preparations, peptides 43-45, 43-46, 43-48, 43-49, 43-50, and 43-51 were prepared to define the C-terminal boundary of the H-18 MAB epitope and to determine whether polyclonal antisera to the 38-57 loop reacted to sequences beyond the H-18 boundary. […] This latter immunogenicity could involve N-terminal residues 41 and 42 and the C-terminal residue 51.
Peptides with amino acid substitutions in the 43-50 sequence were unreactive.

HCG = experiment: Antibodies bound to HCG raised by conjugated 38-57 loop analogs and reference conjugates (Example XLIV); assay type: in vivo, human; conditions: for antibodies bound to HCG: mean peak binding of the antisera
Description: (§1) In an effort to obtain improved results over the analogs described in my earlier Example XLIII, further synthetic analogs of the unsubstituted 38-57 amino acid sequence of βHCG were prepared and evaluated in a similar manner as set forth in the prior examples. These analogs were provided with a disulfide bridge linking their 38 Cys and 57 Cys to form a loop and included the amino acid residue Ala (Pro)6 on the N-terminus as described earlier herein.
(§2) Table 33 illustrates nine analogs of the 38-57 loop peptide of βHCG with a varying number of amino acid substitutions in the positions outside the conceived 43-50 epitope sequence.
(§3) The antibodies values are expressed herein are as namomoles bound/L unless otherwise stated.

pituitary HLH = experiment: Antibodies bound to pituitary HLH raised by conjugated 38-57 loop analogs and reference conjugates (Example XLIV); assay type: in vivo, human; conditions: mean peak binding of the antisera
Description: as §1, §2, §3

female baboons [2] = tested on: female baboons
female baboons [3] = experiment: Fertility rates (matings and pregnancies) of immunized female baboons; assay type: in vivo, baboon; conditions: for Fertility Rate (%) / No. Pregnant: female baboons
progesterone = conditions: female baboons
[4] = post-immunization menstrual cycle 1
[5] = post-immunization menstrual cycle 2
[6] = post-immunization menstrual cycle 3
[7] = post-immunization menstrual cycle 4
[8] = post-immunization menstrual cycle 5
[9] = pre-immunization menstrual cycle −1
[10] = pre-immunization menstrual cycle −2
[11] = pre-immunization menstrual cycle −3

CPTMTRVLQGVLPALPQVVC (cysteine pairing not given here) [Structure (XXVII)]
antibodies against the peptide not directed to the 43-50 region [1]: about 5%

CPT[Nle]DRVLQGVLPAVPQVVC (cysteine pairing not given here) [analog number 2]
HCG antibodies bound, of those using the conjugated unsubstituted 38-57 loop sequence (HCG; in vivo): about 75%
antibodies bound to HCG (HCG): 420 nanomoles bound/L
antibodies bound to pituitary HLH (pituitary HLH): 13 nanomoles bound/L

conjugate including the βHCG 109-145 amino acid sequence: conjugate of the βHCG 109-145 sequence tested in Example XLIV (TCDDPRFQDSSSSKAPPPSLPSPSRLPGPSDTPILPQ; also: conjugated to carrier; UniProt P0DN86 129-165, looked up, fragment)
antibodies bound to HCG (HCG): 1240 nanomoles bound/L
antibodies bound to pituitary HLH (pituitary HLH): 0 nanomoles bound/L

diphtheria toxoid
Cycle Length (days), Mean (female baboons [2]; [4]): 32.7 days
Cycle Length (days), Mean (female baboons [2]; [5]): 33.1 days
Cycle Length (days), Mean (female baboons [2]; [6]): 34.0 days
Cycle Length (days), Mean (female baboons [2]; [7]): 30.0 days
Cycle Length (days), Mean (female baboons [2]; [8]): 31.0 days
Cycle Length (days), Mean (female baboons [2]; [9]): 33.2 days
Cycle Length (days), Mean (female baboons [2]; [10]): 33.5 days
Cycle Length (days), Mean (female baboons [2]; [11]): 34.4 days
Fertility Rate (female baboons [3]; Example XXXV, all matings of three mating cycles, CGP 11637, Squalene/Arlacel A): 70%
Fertility Rate (%) (female baboons [3]; mating cycle 1): 73.3%
No. Pregnant (female baboons [3]; mating cycle 1): 11
Fertility Rate (%) (female baboons [3]; mating cycle 2): 75.0%
No. Pregnant (female baboons [3]; mating cycle 2): 3
Fertility Rate (%) (female baboons [3]; mating cycle 3): 0%
No. Pregnant (female baboons [3]; mating cycle 3): 0
Fertility Rate (%) (female baboons [3]; totals of mating cycles 1-3): 70.0%
No. Pregnant (female baboons [3]; totals of mating cycles 1-3): 14
pregnancies in total (female baboons [3]; in vivo): 14
Luteal phase Progesterone (ng/ml), Mean (progesterone; [4]): 4.3 ng/mL
Luteal phase Progesterone (ng/ml), Mean (progesterone; [5]): 6.0 ng/mL
Luteal phase Progesterone (ng/ml), Mean (progesterone; [6]): 7.0 ng/mL
Luteal phase Progesterone (ng/ml), Mean (progesterone; [7]): 5.9 ng/mL
Luteal phase Progesterone (ng/ml), Mean (progesterone; [8]): 6.0 ng/mL
Luteal phase Progesterone (ng/ml), Mean (progesterone; [9]): 6.0 ng/mL
Luteal phase Progesterone (ng/ml), Mean (progesterone; [10]): 6.8 ng/mL
Luteal phase Progesterone (ng/ml), Mean (progesterone; [11]): 6.9 ng/mL
